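Compound exposure: 48 hours, 5 concentrations, 96-well plates. GI50 marks 50% less growth.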 The source made the active and inactive calls. Cut-off read from the data, not from the text of the source: active = GI50 up to about 1.1 µM and inactive = higher.
Tests used:
Assay in all cases: DTP human tumour cell line panel, 48 h
NCI-H23 = tested on: NCI-H23
OVCAR-5 = tested on: OVCAR-5
UACC-257 = tested on: UACC-257
MOLT-4 = tested on: MOLT-4
ACHN = tested on: ACHN
RPMI-8226 = tested on: RPMI-8226
MCF7 = tested on: MCF7
SN12C = tested on: SN12C
KM12 = tested on: KM12
SF-268 = tested on: SF-268
IGROV-1 = tested on: IGROV-1
OVCAR-4 = tested on: OVCAR-4
NCI-H522 = tested on: NCI-H522
HT-29 = tested on: HT-29
CAKI-1 = tested on: CAKI-1
SF-295 = tested on: SF-295
OVCAR-8 = tested on: OVCAR-8
TK-10 = tested on: TK-10
M14 = tested on: M14
SK-OV-3 = tested on: SK-OV-3
COLO 205 = tested on: COLO 205
SK-MEL-5 = tested on: SK-MEL-5
SF-539 = tested on: SF-539
BT-549 = tested on: BT-549
K562 = tested on: K562
SNB-75 = tested on: SNB-75
SW-620 = tested on: SW-620
HOP-92 = tested on: HOP-92
UO-31 = tested on: UO-31
OVCAR-3 = tested on: OVCAR-3
HCC 2998 = tested on: HCC 2998
HCT-116 = tested on: HCT-116
U-251 = tested on: U-251
MDA-MB-435 = tested on: MDA-MB-435
A498 = tested on: A498
DU-145 = tested on: DU-145
CCRF-CEM = tested on: CCRF-CEM
A549 = tested on: A549
Hs-578T = tested on: Hs-578T
NCI/ADR-RES = tested on: NCI/ADR-RES
HOP-62 = tested on: HOP-62
SNB-19 = tested on: SNB-19
PC-3 = tested on: PC-3
NCI-H460 = tested on: NCI-H460
SK-MEL-2 = tested on: SK-MEL-2
EKVX = tested on: EKVX
MDA-MB-231 = tested on: MDA-MB-231
HCT-15 = tested on: HCT-15
RXF 393 = tested on: RXF 393
786-0 = tested on: 786-0
NCI-H226 = tested on: NCI-H226
SR = tested on: SR
SK-MEL-28 = tested on: SK-MEL-28
T47D = tested on: T47D
LOX IMVI = tested on: LOX IMVI
Malme-3M = tested on: Malme-3M
HL-60 = tested on: HL-60
MDA-N = tested on: MDA-N

Question: What does the source list for `Cc1cnc2c(c1C)C(=O)c1ccccc1C2=O`?
Answer: GI50 (NCI-H23): 44.7 µM (inactive); GI50 (OVCAR-5): > 100 µM (inactive); GI50 (UACC-257): 49.4 µM (inactive); GI50 (MOLT-4): 28.3 µM (inactive); GI50 (ACHN): 36.4 µM (inactive); GI50 (RPMI-8226): 24.6 µM (inactive); GI50 (MCF7): 39.1 µM (inactive); GI50 (SN12C): 28.6 µM (inactive); GI50 (KM12): 44.6 µM (inactive); GI50 (SF-268): 20.1 µM (inactive); GI50 (IGROV-1): 32.6 µM (inactive); GI50 (OVCAR-4): 18.8 µM (inactive); GI50 (NCI-H522): > 100 µM (inactive); GI50 (HT-29): 37.2 µM (inactive); GI50 (CAKI-1): 30 µM (inactive); GI50 (SF-295): 50.2 µM (inactive); GI50 (OVCAR-8): 43.2 µM (inactive); GI50 (TK-10): > 100 µM (inactive); GI50 (M14): 69 µM (inactive); GI50 (SK-OV-3): 50.5 µM (inactive); GI50 (COLO 205): 28.8 µM (inactive); GI50 (SK-MEL-5): 11.8 µM (inactive); GI50 (SF-539): 29.2 µM (inactive); GI50 (BT-549): > 100 µM (inactive); GI50 (K562): 39.4 µM (inactive); GI50 (SNB-75): 32.9 µM (inactive); GI50 (SW-620): 27.5 µM (inactive); GI50 (HOP-92): > 100 µM (inactive); GI50 (UO-31): 21.2 µM (inactive); GI50 (OVCAR-3): 3.48 µM (inactive); GI50 (HCC 2998): 29.7 µM (inactive); GI50 (HCT-116): 36.1 µM (inactive); GI50 (U-251): 61.5 µM (inactive); GI50 (MDA-MB-435): 19.3 µM (inactive); GI50 (A498): > 100 µM (inactive); GI50 (DU-145): > 100 µM (inactive); GI50 (CCRF-CEM): 69.8 µM (inactive); GI50 (A549): 40.1 µM (inactive); GI50 (Hs-578T): 32.9 µM (inactive); GI50 (NCI/ADR-RES): 46.3 µM (inactive); GI50 (HOP-62): 2.47 µM (inactive); GI50 (SNB-19): 41.9 µM (inactive); GI50 (PC-3): 26 µM (inactive); GI50 (NCI-H460): 18.8 µM (inactive); GI50 (SK-MEL-2): 63.5 µM (inactive); GI50 (EKVX): 37.8 µM (inactive); GI50 (MDA-MB-231): 26.5 µM (inactive); GI50 (HCT-15): 21.6 µM; GI50 (RXF 393): 58.1 µM (inactive); GI50 (786-0): 65.2 µM (inactive); GI50 (NCI-H226): 36.8 µM (inactive); GI50 (SR): 38 µM (inactive); GI50 (SK-MEL-28): > 100 µM (inactive); GI50 (T47D): 70.5 µM (inactive)

Question: Which results are given for `CC1(C)CC(=O)c2c(nc(SSc3nc4c(c(-c5ccccc5)c3C#N)C(=O)CC(C)(C)C4)c(C#N)c2-c2ccccc2)C1`?
Answer: GI50 (NCI-H23): > 10 µM (inactive); GI50 (OVCAR-5): > 10 µM (inactive); GI50 (UACC-257): > 10 µM (inactive); GI50 (MOLT-4): > 10 µM (inactive); GI50 (ACHN): > 10 µM (inactive); GI50 (RPMI-8226): > 10 µM (inactive); GI50 (MCF7): > 10 µM (inactive); GI50 (SN12C): > 10 µM (inactive); GI50 (KM12): > 10 µM (inactive); GI50 (SF-268): > 10 µM (inactive); GI50 (LOX IMVI): > 10 µM (inactive); GI50 (IGROV-1): > 10 µM (inactive); GI50 (OVCAR-4): > 10 µM (inactive); GI50 (NCI-H522): > 10 µM (inactive); GI50 (HT-29): > 10 µM (inactive); GI50 (CAKI-1): > 10 µM (inactive); GI50 (SF-295): > 10 µM (inactive); GI50 (OVCAR-8): > 10 µM (inactive); GI50 (TK-10): > 10 µM (inactive); GI50 (M14): > 10 µM (inactive); GI50 (SK-OV-3): > 10 µM (inactive); GI50 (COLO 205): > 10 µM (inactive); GI50 (SK-MEL-5): > 10 µM (inactive); GI50 (SF-539): > 10 µM (inactive); GI50 (BT-549): > 10 µM (inactive); GI50 (K562): > 10 µM (inactive); GI50 (SNB-75): > 10 µM (inactive); GI50 (SW-620): > 10 µM (inactive); GI50 (HOP-92): > 10 µM (inactive); GI50 (UO-31): > 10 µM (inactive); GI50 (OVCAR-3): > 10 µM (inactive); GI50 (HCC 2998): > 10 µM (inactive); GI50 (Malme-3M): > 10 µM (inactive); GI50 (HCT-116): > 10 µM (inactive); GI50 (U-251): > 10 µM (inactive); GI50 (A498): > 10 µM (inactive); GI50 (DU-145): > 10 µM (inactive); GI50 (HL-60): > 10 µM (inactive); GI50 (CCRF-CEM): > 10 µM (inactive); GI50 (A549): > 10 µM (inactive); GI50 (Hs-578T): > 10 µM (inactive); GI50 (NCI/ADR-RES): > 10 µM (inactive); GI50 (HOP-62): > 10 µM (inactive); GI50 (SNB-19): > 10 µM (inactive); GI50 (PC-3): > 10 µM (inactive); GI50 (NCI-H460): > 10 µM (inactive); GI50 (SK-MEL-2): > 10 µM (inactive); GI50 (EKVX): > 10 µM (inactive); GI50 (HCT-15): > 10 µM; GI50 (RXF 393): > 10 µM (inactive); GI50 (786-0): > 10 µM (inactive); GI50 (NCI-H226): > 10 µM (inactive); GI50 (SK-MEL-28): > 10 µM (inactive); GI50 (T47D): > 10 µM (inactive)

Question: Which results are given for `COc1ccc(C2=NN(c3ccccc3)C(c3cc4cc(Br)ccc4nc3Cl)C2)cc1` (configuration not stated)?
Answer: GI50 (NCI-H23): > 25 µM (inactive); GI50 (OVCAR-5): > 25 µM (inactive); GI50 (MOLT-4): > 25 µM (inactive); GI50 (MDA-N): 20.8 µM (inactive); GI50 (RPMI-8226): > 25 µM (inactive); GI50 (SN12C): > 25 µM (inactive); GI50 (KM12): 11.4 µM (inactive); GI50 (SF-268): > 25 µM (inactive); GI50 (LOX IMVI): > 25 µM (inactive); GI50 (IGROV-1): 15.2 µM (inactive); GI50 (OVCAR-4): 20.3 µM (inactive); GI50 (NCI-H522): 16.7 µM (inactive); GI50 (HT-29): > 25 µM (inactive); GI50 (CAKI-1): 22.8 µM (inactive); GI50 (SF-295): 9.51 µM (inactive); GI50 (OVCAR-8): > 25 µM (inactive); GI50 (M14): > 25 µM (inactive); GI50 (SK-OV-3): > 25 µM (inactive); GI50 (COLO 205): 9.71 µM (inactive); GI50 (SK-MEL-5): > 25 µM (inactive); GI50 (SF-539): > 25 µM (inactive); GI50 (BT-549): > 25 µM (inactive); GI50 (K562): 14.1 µM (inactive); GI50 (SNB-75): > 25 µM (inactive); GI50 (SW-620): 24.9 µM (inactive); GI50 (HOP-92): > 25 µM (inactive); GI50 (UO-31): > 25 µM (inactive); GI50 (OVCAR-3): > 25 µM (inactive); GI50 (Malme-3M): > 25 µM (inactive); GI50 (HCT-116): 17.5 µM (inactive); GI50 (MDA-MB-435): 14.3 µM (inactive); GI50 (DU-145): > 25 µM (inactive); GI50 (HL-60): > 25 µM (inactive); GI50 (CCRF-CEM): 24.2 µM (inactive); GI50 (A549): 15.1 µM (inactive); GI50 (Hs-578T): > 25 µM (inactive); GI50 (NCI/ADR-RES): > 25 µM (inactive); GI50 (HOP-62): 18.8 µM (inactive); GI50 (SNB-19): > 25 µM (inactive); GI50 (PC-3): 23 µM (inactive); GI50 (SK-MEL-2): > 25 µM (inactive); GI50 (EKVX): 11.9 µM (inactive); GI50 (HCT-15): 11.6 µM; GI50 (RXF 393): > 25 µM (inactive); GI50 (786-0): > 25 µM (inactive); GI50 (NCI-H226): > 25 µM (inactive); GI50 (SR): 16.3 µM (inactive); GI50 (SK-MEL-28): > 25 µM (inactive); GI50 (T47D): > 25 µM (inactive)

Reference: ChEMBL document CHEMBL1201862, “PubChem BioAssay data set” (2004)
